Measurements as given in patent publication US4772619A, “[(1H-benzimidazol-2-ylsulfinyl)methyl]-2-pyridinamines” (G. D. Searle & Co., priority 1986, dated 1988).
pIC50: −log10 of the molar value.

Tests used:
[1] = tested on: gastric acid secretion; assay: Inhibition of Gastric Acid Secretion in Gastric Fistula Beagle Dogs; format: in vivo; conditions: 3 mg/kg dose, i.v.; histamine-stimulated, four-hour period
From the text: Inhibition of Gastric Acid Secretion in Gastric Fistula Beagle Dogs
Adult female beagle dogs weighing 6 to 11 kilograms obtained from Laboratory Research Enterprises (Kalamazoo, Mich.) or from Hazelton Research Animals (Cumberland, Va.) were surgically implanted with a simple Thomas-type gastric cannula. After recovery from surgery, the dogs were trained to stand quietly, fully conscious, in Pavlov-type dog restraining slings and were acclimated to intravenous infusion of histamine dihydrochloride. During the course of these studies, no dog was used more than once a week. All dogs were deprived of food, but not water, for 18 hours prior to each assay. […] The volume of gastric secretions, collected in plastic bottles affixed to the cannula, were measured to the nearest 0.1 ml at 30 minute intervals. […]
Intravenous dosing: Following a 30-minute basal secretion period, test compounds were administered intravenously (i.v.). […] The pH and titratable acidity were determined for samples from each collection period. […]
Data from each protocol were analyzed for three gastric sample variables: volume of gastric juice, acid concentration, and total acid output. Percent inhibition for each four-hour experimental period was determined for each parameter by comparison with 3 to 4 controls in which only food was given. Estimates of ED50 's were determined from dose response curves.

[2] = biological target: T1, (H^+ +K^+)-ATPase (Canis lupus familiaris, UniProt P50996); assay: Inhibition of (H^+ +K^+)-ATPase from Canine Gastric Mucosa; format: biochemical, canine (mongrel dogs); conditions: canine gastric mucosa microsomes, pH 6.0, 30 min preincubation with compound at 37°
T1 construct: from tissue; host or cells: microsomes from glandular gastric mucosa (antral and cardiac regions removed) of mongrel dogs, lyophilized
T1 sequence (P50996 whole entry): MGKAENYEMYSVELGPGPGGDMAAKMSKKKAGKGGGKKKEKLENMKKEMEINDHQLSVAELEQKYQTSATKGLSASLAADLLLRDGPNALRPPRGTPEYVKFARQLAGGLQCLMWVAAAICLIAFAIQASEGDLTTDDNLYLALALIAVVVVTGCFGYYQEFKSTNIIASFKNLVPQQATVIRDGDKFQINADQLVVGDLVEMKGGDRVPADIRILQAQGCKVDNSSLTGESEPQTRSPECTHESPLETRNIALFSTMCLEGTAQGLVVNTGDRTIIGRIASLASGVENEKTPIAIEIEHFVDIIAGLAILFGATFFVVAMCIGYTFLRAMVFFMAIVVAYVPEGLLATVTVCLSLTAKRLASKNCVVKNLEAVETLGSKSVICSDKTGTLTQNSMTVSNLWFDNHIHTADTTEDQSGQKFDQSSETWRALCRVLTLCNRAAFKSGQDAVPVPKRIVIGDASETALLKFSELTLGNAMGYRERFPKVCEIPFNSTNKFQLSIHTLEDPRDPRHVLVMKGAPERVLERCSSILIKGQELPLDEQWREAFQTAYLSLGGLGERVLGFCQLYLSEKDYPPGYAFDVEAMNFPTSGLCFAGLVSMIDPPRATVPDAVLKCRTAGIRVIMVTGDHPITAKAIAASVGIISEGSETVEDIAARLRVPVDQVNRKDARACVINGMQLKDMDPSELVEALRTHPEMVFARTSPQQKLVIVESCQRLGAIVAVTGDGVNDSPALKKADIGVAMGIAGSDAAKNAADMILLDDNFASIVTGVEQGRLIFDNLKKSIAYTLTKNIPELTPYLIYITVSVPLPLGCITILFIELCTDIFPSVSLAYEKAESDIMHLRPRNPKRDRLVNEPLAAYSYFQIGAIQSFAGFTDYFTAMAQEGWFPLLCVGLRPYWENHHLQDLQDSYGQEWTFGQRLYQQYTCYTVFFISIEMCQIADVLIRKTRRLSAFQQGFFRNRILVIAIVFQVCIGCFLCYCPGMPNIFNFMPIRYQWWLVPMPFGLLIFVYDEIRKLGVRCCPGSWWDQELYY
T1 sequence (P33704 whole entry partner): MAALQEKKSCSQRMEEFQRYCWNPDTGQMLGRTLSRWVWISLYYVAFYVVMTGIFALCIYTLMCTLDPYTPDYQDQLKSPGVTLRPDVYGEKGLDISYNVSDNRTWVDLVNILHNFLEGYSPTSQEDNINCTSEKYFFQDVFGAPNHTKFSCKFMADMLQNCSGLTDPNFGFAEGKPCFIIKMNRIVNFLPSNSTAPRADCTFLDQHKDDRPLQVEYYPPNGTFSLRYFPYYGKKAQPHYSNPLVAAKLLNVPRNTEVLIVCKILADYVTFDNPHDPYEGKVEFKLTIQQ

- pIC50 [2]: 4.00
Structure (SMILES): Nc1ncccc1C[S+]([O-])c1nc2ccccc2[nH]1.O (centres unmarked) [Example 3, 3-[(1H-benzimidazol-2-ylsulfinyl)methyl]-2-pyridinamine hydrate]
- Gastric-Fistula Beagle % Inhibition [1]: 41%
